Source: BindingDB's records for doi:10.1021/jm00069a017 (University of Minnesota, 1993)

Legend:
[1] = Selective binding affinity against Opioid receptor delta 1, using [3H]DPDPE as radioligand
[2] = Selective binding affinity against Opioid receptor delta 2, using [3H]DSLET as radioligand

With CN1CC[C@]23c4c5ccc(O)c4O[C@H]2C(=O)C2(Cc4ccccc4C2)C[C@@]3(O)[C@H]1C5 [Spiroindanyloxymorphone] the Ki [1] was 1.4 nM and the Ki [2] was 3.3 nM.
